Measurements published in patent publication US12527846B2, “Immunodominant proteins and fragments in multiple sclerosis” (UNIVERSITÄT ZÜRICH, priority 2018, dated 2026).
pEC50: −log10 of the molar value. Ends that are not written are not given here.

How the values were obtained:
TCC14 [1] = assay: Cytokine secretion of TCC14 on recognition of the RASGRP2 peptide; assay type: cell-based, human; settings: data not shown
TCC14 [2] = settings: read-out: EC50 (antigen avidity); dose titration, BLS DR2b, proliferation after 72 h
TCC21.1 [3] = assay type: cell-based, human
Protocol: TCC21.1 was then tested with the complete decapeptide positional scanning library (200 mixtures; i.e. mixtures representing the 10 positions of a 10-mer and in each of the fixed positions one of the 20 L-amino acids), presented by BCL expressing DRB1*15:01 class II molecules. A similar response pattern was obtained with IL-10 release. Next, a biometrical analysis scoring matrix was generated by assigning numerical values to the stimulatory potential of each of the 20 defined AAs in each of the ten positions of the decapeptide library as previously described (Zhao et al., 2001). Here, the values were calculated as the log base 10 of the median GM-CSF (pg/ml) secretion of three independent experiments in the presence of mixtures, minus the secretion in the absence of mixtures (FIG. 3B). Based on a model of independent contribution of individual AAs to peptide antigen recognition, the predicted stimulatory score of a given peptide is the sum of the matrix values of each AA contained in the peptide at each position (Zhao et al., 2001). […] Using the new “harmonic boost” frame 1 and frame 2 matrices, all natural overlapping 10-mers peptides derived from the UniProt human protein database were scored and ranked as schematically shown in FIG. 2. […]

TCC21.1 [4] = assay: Intracellular cytokine staining of TCC21.1 after peptide stimulation; assay type: cell-based, human
Protocol: Next, the response of TCC21.1 to GDP-L-fucose synthase peptides presented by autologous irradiated PBMCs and BCL was characterized. GDP-L-fucose synthase peptides presented by the two types of APCs were able to induce proliferation. The functional phenotype of this response was also analyzed. […] Unexpectedly, when peptides were presented by autologous BCL, they induced higher levels of IFNγ. In addition, TCC21.1 also released GM-CSF and IL-3 in response to GDP-L-fucose synthase peptides. The release of these two cytokines seems to be a specific feature of this TCC compared with other Th1, Th1* or Th1/2 TLCs that were generated from patients with different conditions. Intracellular cytokine staining confirmed the Th2 functional phenotype of TCC21.1 in response to GDP-L-fucose synthase (96-105, SEQ ID NO: 16). More than 60% of TCC21.1 cells were IL-4+ after stimulation with GDP-L-fucose synthase (96-105, SEQ ID NO: 16), while only around 12% were IFNγ+. Around 60% of the cells were GM-CSF+ and 47.7% of these also IL-4+.
For intracellular cytokine staining, TCC21.1 was analyzed 48 h after stimulation. After 5 h in presence of GolgiStop protein transport inhibitor (BD Biosciences), T cells were labeled with Live/Dead® Aqua (Invitrogen). Following fixation and permeabilization with Cytofix/Cytoperm (BD Biosciences), cells were stained with antibodies against CD4 (APC-Cy7, Biolegend), IFN-γ (FITC, Biolegend), IL-4 (PE, BD Bioscience), GM-CSF (APC, Biolegend) and IL-3 (PE, Biolegend) in PBS containing saponin and BSA, and analyzed by flow cytometry.

TCC21.1 [5] = assay: Proliferation of TCC21.1 in response to GDP-L-fucose synthase peptides presented by autologous APCs; assay type: cell-based, human; settings: 15-mer peptides overlapping by 10 AAs, presented by autologous PBMCs

LVRYWISAFP [SEQ ID NO: 33, LVRYWISAFP]
cytokine secretion by TCC14 (TCC14 [1]): secretion of Th2 cytokines and also of IFN-γ | pEC50 (TCC14 [2]): 7.92

NVLHSAFEVG [SEQ ID NO: 16, NVLHSAFEVG]
EC50 (TCC21.1 [3]): 0.2 µg/mL | GM-CSF+ TCC21.1 cells also IL-4+ (TCC21.1 [4]): 47.7% | TCC21.1 cells GM-CSF+ (TCC21.1 [4]): Around 60% | TCC21.1 cells IFNγ+ (TCC21.1 [4]): around 12% | TCC21.1 cells IL-4+ (TCC21.1 [4]): More than 60%

NVLHSAFEVGARKVV (listed as Homo sapiens) [SEQ ID NO: 17]
recognition by TCC21.1 (proliferation) (TCC21.1 [5]): recognized

VHMNDNVLHSAFEVG (listed as Homo sapiens) [SEQ ID NO: 14]
recognition by TCC21.1 (proliferation) (TCC21.1 [5]): recognized

VLHSAFEVGA (listed as Homo sapiens) [SEQ ID NO: 18]
GM-CSF release by TCC21.1 (stimulatory capacity) (TCC21.1 [3]; individual decapeptides at 5 pg/ml, presented by BLS cells expressing DRB1*15:01): induced GM-CSF release
